Where only a bound is given, the exact number is not on record here.

In one test the target is T1, human CaMKIIδ (Homo sapiens, UniProt Q13557).
T1 construct: Full-length, glutathione-S-transferase(GST)-tagged, human CaMKIIδ was purchased from Carna Biosciences; purchased Carna Biosciences (CaMKIIδ); Wako Pure Chemical Industries (calmodulin) 02-111
Description: Evaluation of in vitro CaMKII inhibitory activity (binding assay, TR-FRET). The note with it: human CaMKIIδ, TR-FRET binding assay; class symbols A/B/C; read-out: Act (CaMKII inhibitory activity, binding assay). Here is the method:
Evaluation of In Vitro CaMKII Inhibitory Activity (Binding Assay)
In vitro CaMKIIδ inhibitory activity was evaluated by a binding assay.
Full-length bovine calmodulin was purchased from Wako Pure Chemical Industries (Osaka, Japan). Terbium-labeled anti-GST anti body (Tb-anti-GST Ab) was purchased from Life Technologies (Carlsbad, CA, USA). Fluorescent probe ligand, 5,5-difluoro-7,9-dimethyl-3-(3-oxo-3-((3-((4-(3-(piperazin-1-yl)phenyl)pyrimidin-2-yl)amino)phenyl)amino) propyl)-5H-dipyrrolo[1,2-c:2′,1′-f]
Time-resolved fluorescence resonance energy transfer (TR-FRET) assay
The fluorescent probe ligand, 5,5-difluoro-7,9-dimethyl-3-(3-oxo-3-((3-((4-(3-(piperazin-1-yl)phenyl)pyrimidin-2-yl)amino)phenyl)amino) propyl)-5H-dipyrrolo[1,2-c:2′,1′-f] […] After shaded incubation of the protein-probe mixture on ice for 30 min, the premix was dispensed in the assay plate including test inhibitors with 4 fold dilution series of eight concentrations. After 1 hr incubation at room temperature, TR-FRET signals were measured in duplicate using an EnVision microplate reader (Perkin Elmer, Waltham, MA, USA).
The half maximal inhibitory concentration (IC50) of test compounds was calculated by fitting the data with the logistic equation using XLfit (IDBS, Guildford, UK).
A general note: In TR-FRET formats the signal depends on donor and acceptor labels being close together.
For `CCN(CC)CCNC(=O)c1cccc(-c2cnn3ccc(-c4ccc(C#N)c(O[C@@H](C)Cn5cnnn5)c4)nc23)c1` [Example 1, 3-[5-(4-cyano-3-{[(2S)-1-(1H-tetrazol-1-yl)propan-2-yl]oxy}phenyl)pyrazolo[1,5-a]pyrimidin-3-yl]-N-[2-(diethylamino)ethyl]benzamide], the IC50 was 10 to 100 nM. With `Cc1nn2ccc(-c3ccc(F)c(O[C@@H](C)Cn4cnnn4)c3)nc2c1-c1cccs1` [Example 57, 1-[(2S)-2-{2-fluoro-5-[2-methyl-3-(thiophen-2-yl)pyrazolo[1,5-a]pyrimidin-5-yl]phenoxy}propyl]-1H-tetrazole], the IC50 was 10 to 100 nM. Turning to `C[C@@H](Cn1cncn1)Oc1cccc(-c2ccn3ncc(-c4cccs4)c3n2)c1` [Example 61, 1-[(2S)-2-{3-[3-(thiophen-2-yl)pyrazolo[1,5-a]pyrimidin-5-yl]phenoxy}propyl]-1H-1,2,4-triazole], the IC50 is under 10 nM.

For the compound `C[C@@H](Cn1cnnn1)Oc1cc(-c2ccc3ncc(-c4ccccc4C#N)n3n2)ccc1F` [Example 121, 2-[6-(4-fluoro-3-{[(2S)-1-(1H-tetrazol-1-yl)propan-2-yl]oxy}phenyl)imidazo[1,2-b]pyridazin-3-yl]benzonitrile], the IC50 is under 10 nM. With `C[C@@H](Cn1cnnn1)Oc1cc(-c2ccc3ncn(-c4ncccc4C#N)c3n2)ccc1F` [Example 150, 2-[5-(4-fluoro-3-{[(2S)-1-(1H-tetrazol-1-yl)propan-2-yl]oxy}phenyl)-3H-imidazo[4,5-b]pyridin-3-yl]pyridine-3-carbonitrile], the IC50 was under 10 nM. Turning to `C[C@@H](Cn1cnnn1)Oc1cc(-c2ccc3ncn(-c4ncn(C)c4C#N)c3n2)ccc1F` [Example 173, 4-[5-(4-fluoro-3-{[(2S)-1-(1H-tetrazol-1-yl)propan-2-yl]oxy}phenyl)-3H-imidazo[4,5-b]pyridin-3-yl]-1-methyl-1H-imidazole-5-carbonitrile], the IC50 is under 10 nM.

Still in this test, the particulars now being: in vitro CaMKII inhibitory activity (binding assay), human CaMKIIδ; read-out: Act.
Turning to `C[C@@H](Cn1cnnn1)Oc1cccc(-c2ccc3ncc(-c4ccccc4C#N)n3n2)c1` [Example 239, 2-[6-(3-{[(2S)-1-(1H-tetrazol-1-yl)propan-2-yl]oxy}phenyl)imidazo[1,2-b]pyridazin-3-yl]benzonitrile], the IC50 is under 10 nM.

In the case of `C[C@@H](Cn1cnnn1)Oc1cncc(-c2ccc3ncc(-c4ccccc4C#N)n3n2)c1` [Example 244, 2-[6-(5-{[(2S)-1-(1H-tetrazol-1-yl)propan-2-yl]oxy}pyridin-3-yl)imidazo[1,2-b]pyridazin-3-yl]benzonitrile], the IC50 is under 10 nM. On to `C[C@@H](Cn1cnnn1)Oc1cc(-c2ccc3ncc(-c4ncccc4C#N)n3n2)ccc1F` [Example 247, 2-[6-(4-fluoro-3-{[(2S)-1-(1H-tetrazol-1-yl)propan-2-yl]oxy}phenyl)imidazo[1,2-b]pyridazin-3-yl]pyridine-3-carbonitrile], for which the IC50 was under 10 nM. Same read-out and setting: next, `C[C@@H](Cn1cnnn1)Oc1cccc(-c2ccc3ncc(-c4cnccc4C#N)n3n2)c1` [Example 251, 3-[6-(3-{[(2S)-1-(1H-tetrazol-1-yl)propan-2-yl]oxy}phenyl)imidazo[1,2-b]pyridazin-3-yl]pyridine-4-carbonitrile]: under 10 nM. Take `C[C@@H](Cn1cnnn1)Oc1cccc(-c2ccc3ncc(-c4cccn(C)c4=O)n3n2)c1` [Example 253, 1-methyl-3-[6-(3-{[(2S)-1-(1H-tetrazol-1-yl)propan-2-yl]oxy}phenyl)imidazo[1,2-b]pyridazin-3-yl]-1,2-dihydropyridin-2-one]: the IC50 is under 10 nM. As for `C[C@@H](Cn1cnnn1)Oc1cccc(-c2ccc3ncc(-c4cncnc4C#N)n3n2)c1` [Example 267, 5-[6-(3-{[(2S)-1-(1H-tetrazol-1-yl)propan-2-yl]oxy}phenyl)imidazo[1,2-b]pyridazin-3-yl]pyrimidine-4-carbonitrile], the IC50 was under 10 nM. Turning to `C[C@@H](Cn1cnnn1)Oc1cc(-c2ccc3ncc(-c4c[n+]([O-])ccc4C#N)n3n2)ccc1F` [Example 269, (S)-3-(6-(3-((1-(1H-tetrazol-1-yl)propan-2-yl)oxy)-4-fluorophenyl)imidazo[1,2-b]pyridazin-3-yl)-4-cyanopyridine N-oxide], the IC50 was under 10 nM.

Regarding `C[C@@H](Cn1cnnn1)Oc1cccc(-c2ccc3ncc(-c4ncccc4C#N)n3n2)c1` [Example 271, 2-[6-(3-{[(2S)-1-(1H-tetrazol-1-yl)propan-2-yl]oxy}phenyl)imidazo[1,2-b]pyridazin-3-yl]pyridine-3-carbonitrile], the IC50 was under 10 nM. Turning to `C[C@@H](Cn1cnnn1)Oc1cc(-c2ccc3ncc(-c4cnccc4C#N)n3n2)ccc1F` [Example 275, 3-[6-(4-fluoro-3-{[(2S)-1-(1H-tetrazol-1-yl)propan-2-yl]oxy}phenyl)imidazo[1,2-b]pyridazin-3-yl]pyridine-4-carbonitrile], the IC50 is under 10 nM. Still for that read-out and setting: in the case of `C[C@@H](Cn1cnnn1)Oc1cccc(-c2ccc3ncn(-c4ncccc4C#N)c3n2)c1` [Example 284, 2-[5-(3-{[(2S)-1-(1H-tetrazol-1-yl)propan-2-yl]oxy}phenyl)-3H-imidazo[4,5-b]pyridin-3-yl]pyridine-3-carbonitrile] it was under 10 nM; in that of `COc1cc(-c2cnc3ccc(-c4cccc(O[C@@H](C)Cn5cnnn5)c4)nn23)c(C#N)cn1` [Example 289, 6-methoxy-4-[6-(3-{[(2S)-1-(1H-tetrazol-1-yl)propan-2-yl]oxy}phenyl)imidazo[1,2-b]pyridazin-3-yl]pyridine-3-carbonitrile], under 10 nM; in that of `C[C@@H](Cn1cnnn1)Oc1cccc(-c2ccc3ncn(-c4cc(F)ccc4C#N)c3n2)c1` [Example 291, 4-fluoro-2-[5-(3-{[(2S)-1-(1H-tetrazol-1-yl)propan-2-yl]oxy}phenyl)-3H-imidazo[4,5-b]pyridin-3-yl]benzonitrile], under 10 nM. Turning to `C[C@@H](Cn1cnnn1)Oc1cnnc(-c2ccc3ncc(-c4cc(F)ccc4C#N)n3n2)c1` [Example 298, 4-fluoro-2-[6-(5-{[(2S)-1-(1H-tetrazol-1-yl)propan-2-yl]oxy}pyridazin-3-yl)imidazo[1,2-b]pyridazin-3-yl]benzonitrile], the IC50 lay in the range of 10 to 100 nM. Turning to `COc1ccnc(-c2cnc3ccc(-c4cccc(O[C@@H](C)Cn5cnnn5)c4)nn23)c1C#N` [Example 300, 4-methoxy-2-[6-(3-{[(2S)-1-(1H-tetrazol-1-yl)propan-2-yl]oxy}phenyl)imidazo[1,2-b]pyridazin-3-yl]pyridine-3-carbonitrile], the IC50 was under 10 nM.

With `C[C@@H](Cn1cnnn1)Oc1cc(-c2ccc3ncn(-c4cc(F)ccc4C#N)c3n2)ncn1` [Example 305, 4-fluoro-2-[5-(6-{[(2S)-1-(1H-tetrazol-1-yl)propan-2-yl]oxy}pyrimidin-4-yl)-3H-imidazo[4,5-b]pyridin-3-yl]benzonitrile], the IC50 is 10 to 100 nM.

For the compound `C[C@@H](Cn1cnnn1)Oc1ccnc(-c2ccc3ncc(-c4cc(F)ccc4C#N)n3n2)c1` [Example 311, 4-fluoro-2-[6-(4-{[(2S)-1-(1H-tetrazol-1-yl)propan-2-yl]oxy}pyridin-2-yl)imidazo[1,2-b]pyridazin-3-yl]benzonitrile], the IC50 was under 10 nM. Still for that read-out and setting: in the case of `COc1ccc(C#N)c(-c2cnc3ccc(-c4cccc(O[C@@H](C)Cn5cnnn5)c4)nn23)n1` [Example 313, 6-methoxy-2-[6-(3-{[(2S)-1-(1H-tetrazol-1-yl)propan-2-yl]oxy}phenyl)imidazo[1,2-b]pyridazin-3-yl]pyridine-3-carbonitrile] it was under 10 nM; in that of `COc1ncnc(-c2cnc3ccc(-c4cccc(O[C@@H](C)Cn5cnnn5)c4)nn23)c1C#N` [Example 320, 4-methoxy-6-[6-(3-{[(2S)-1-(1H-tetrazol-1-yl)propan-2-yl]oxy}phenyl)imidazo[1,2-b]pyridazin-3-yl]pyrimidine-5-carbonitrile], under 10 nM. Consider `COc1ccnc(-c2cnc3ccc(-c4ccc(F)c(O[C@@H](C)Cn5cnnn5)c4)nn23)c1C#N` [Example 321, 2-[6-(4-fluoro-3-{[(2S)-1-(1H-tetrazol-1-yl)propan-2-yl]oxy}phenyl)imidazo[1,2-b]pyridazin-3-yl]-4-methoxypyridine-3-carbonitrile], for which the IC50 is under 10 nM. On the same count and under the same terms, next, `C[C@@H](Cn1cnnn1)Oc1cccc(-c2ccc3ncc(-c4cc(F)ccc4C#N)n3n2)n1` [Example 325, 4-fluoro-2-[6-(6-{[(2S)-1-(1H-tetrazol-1-yl)propan-2-yl]oxy}pyridin-2-yl)imidazo[1,2-b]pyridazin-3-yl]benzonitrile]: under 10 nM; `C[C@@H](Cn1cnnn1)Oc1cncc(-c2ccc3ncc(-c4cc(F)ccc4C#N)n3n2)n1` [Example 326, 4-fluoro-2-[6-(6-{[(2S)-1-(1H-tetrazol-1-yl)propan-2-yl]oxy}pyrazin-2-yl)imidazo[1,2-b]pyridazin-3-yl]benzonitrile]: under 10 nM. `C[C@@H](Cn1cnnn1)Oc1nccc(-c2ccc3ncn(-c4cc(F)ccc4C#N)c3n2)n1` [Example 342, 4-fluoro-2-[5-(2-{[(2S)-1-(1H-tetrazol-1-yl)propan-2-yl]oxy}pyrimidin-4-yl)-3H-imidazo[4,5-b]pyridin-3-yl]benzonitrile]: the IC50 was 10 to 100 nM.
